Reference: patent publication US9655828B2, “Glucuronolactone derivatives as self-tanning substances” (Merck Patent GmbH, priority 2013, dated 2017)

Experiments:
[1] = test system: histological explants from lower abdomen tissue; experiment: Ex-vivo study: chromametric measurement of skin explants (ITA); design: species or system human; conditions: 4% substance, 30 μl applied daily for 2 h
Protocol: 24 histological explants having an average diameter of 10 mm are prepared from the lower abdomen tissue of a person. The pieces of tissue are kept in BEM medium (BIO-EC's Explants Medium) at 37° C. in a humid atmosphere comprising 5% of CO2.
The tissue is divided into 8 batches of 3 explants each: • A negative control (untreated sample, treated only with the vehicle Mygliol)→E • A positive control (4% dihydroxyacetone)→R1 • A positive control (4% erythrulose)→R2 • Glucuronolactone (4%)→P1 • Compound of the formula (Ig) (4%)→P2 • Compound of the formula (Ia) (4%)→P3
30 μl of the substance solutions are applied on 10 consecutive days using a round filter paper and left to act for 2 h. On days 1, 3 and 7, the explants are measured chromametrically.
The colour measurements are carried out using a Minolta CR-300 Chroma-meter, and the L, a and b values are read off correspondingly on the instrument.
In 1931, a test series was carried out by the CIE (Commision Internationale de L'Eclairage), where the “2-degree standard observer” was defined. A colour area is present here which is viewed at a viewing angle of 2 degrees. This viewing angle is used as standard in the chromametric measurement. • Irradiation source D65, corresponding to daylight • Region of the measurement: 3 mm • Parameters used: L*a*b*
The sample is placed on the bearing rail with the epidermis facing downwards. The irradiation is carried out from the underside through the area indicated (3 mm).
In the colorimetric determinations <<L a b>>, the L value determines the contrast of the skin. If the L value drops, the skin appears darker.
ITA is defined as arctang[(L-50)/b]. If the ITA index increases, the skin appears paler.

[2] = Colouring test on merino wool balls; conditions: 1 mmol substance in 100 ml buffer (pH 7)/ethylene glycol 6:94, RT, 24 h, then washed and dried; compared with untreated sample
Protocol: In each case, 1 mmol of the substance to be tested are weighed out into a 100 ml conical flask with ground-glass joint:
A merino wool ball with the size of a grape and a magnetic stirrer are then added to each conical flask.
A mixture of 6% by vol. of buffer (ph7) and 94% by vol. of ethylene glycol is then prepared, 100 ml of this mixture are added to each conical flask and stirred at RT for 24 h.
After 24 h, the wool balls are washed firstly with water, then with warm washing-powder solution and again with water and dried.
This colouring result can also be applied to hair, since merino wool, like hair, is built up from proteins (keratins) and the outermost layer is in each case the cuticle.

[3] = Liquid skin model (reaction with L-lysine, L*a*b* values); conditions: for L* / a* / b*: 1 mmol substance + 1 mmol L-lysine in 100 ml phosphate-buffered water (pH=7)/ethylene glycol 6:94; for L* / a* / b* / L values compared with erythrulose or glucuronolactone: after 24 hours; for hue achieved: conclusion from a values
Protocol: The mixture is subsequently made up to the mark with a mixture of 6 ml of phosphate-buffered water (pH=7) and 94 ml of ethylene glycol. The reaction is observed with vigorous stirring, and the L*a*b* values are determined after 24 hours.

In the case of `COc1ccc(/C=C/C(=O)OC2C(=O)OC3C4OC(C)(C)OC4OC23)cc1` (centres unmarked) [Compound (Ia), 2,2-Dimethyl-5-oxohexahydrofuro[2′,3′:4,5]furo[2,3-d]-1,3-dioxol-6-yl(E)-3-(4-methoxyphenyl)acrylate], the “Day 1 (ITA value)” value [1] is reported as −6%, the “Day 3 (ITA value)” value [1] is reported as −5% and the “Day 7 (ITA value)” value [1] is reported as −10%. The “coloration of wool samples” value [2] was “orange-yellow coloration”, the “L*” value [3] was 66.34 and the “a*” value [3] was 34.88. The “b*” value [3] was 105.16, the “L values compared with erythrulose or glucuronolactone” value ([3]; in words) was “lower L values than erythrulose or glucuronolactone” and the hue achieved ([3]; in words) was “shifted more towards red”.
In the case of `CC1(C)OC2OC3C(OC(=O)c4ccccc4)C(=O)OC3C2O1` (centres unmarked) [Compound (Ig)], the “coloration of wool samples” value [2] is reported as “yellow coloration”, the “L*” value [3] is reported as 64.09 and the “a*” value [3] is reported as 36.87. The “b*” value [3] was 103.8, the “L values compared with erythrulose or glucuronolactone” value ([3]; in words) was “lower L values than erythrulose or glucuronolactone” and the hue achieved ([3]; in words) was “shifted more towards red”.
For `CC(=O)OC1C(=O)OC2C3OC(C)(C)OC3OC12` (centres unmarked) [Compound (Io), 2,2-Dimethyl-5-oxohexahydrofuro[2′,3′:4,5]furo[2,3-d]-1,3-dioxol-6-yl acetate], the “coloration of wool samples” value [2] was “pale-yellow coloration”, the “L*” value [3] was 87.51 and the “a*” value [3] was 2.41. For the same compound, the “b*” value [3] was 92.10 and the “L values compared with erythrulose or glucuronolactone” value ([3]; in words) was “lower L values than erythrulose or glucuronolactone”.
In the case of `O=C(CO)CO` [DHA, 1,3-dihydroxyacetone], the “Day 1 (ITA value)” value [1] is reported as −3%, the “Day 3 (ITA value)” value [1] is reported as 0% and the “Day 7 (ITA value)” value [1] is reported as −1%. The “coloration of wool samples” value [2] was “no coloration”, the “L*” value [3] was 34.95 and the “a*” value [3] was 24.91. The “b*” value [3] was 57.45.
In the case of `O=C(CO)[C@H](O)CO` [Erythrulose], the “Day 1 (ITA value)” value [1] is reported as 4%, the “Day 3 (ITA value)” value [1] is reported as −4% and the “Day 7 (ITA value)” value [1] is reported as 4%. For the same compound, the “L*” value [3] was 93.50, the “a*” value [3] was −4.40 and the “b*” value [3] was 32.66.
For `O=C[C@H](O)[C@H]1OC(=O)[C@@H](O)[C@H]1O` [Glucuronolactone], the “Day 1 (ITA value)” value [1] was 10%, the “Day 3 (ITA value)” value [1] was 4% and the “Day 7 (ITA value)” value [1] was −2%. The “coloration of wool samples” value [2] was “very pale-yellow coloration”, the “L*” value [3] was 94.30 and the “a*” value [3] was −6.94. For the same compound, the “b*” value [3] was 38.68 and the “colour effect compared with erythrulose or glucuronolactone” value ([3]; identical concentration in the test formulation, in words) was “comparable colour effect to erythrulose”.
